Data on 15 compounds can be found in patent publication US9963448B2, “Bicyclic inhibitors of PAD4” (Padlock Therapeutics, Inc., priority 2015, dated 2018).

Each structure is given as a SMILES string. Read-outs that look alike come from different tables or passages of the source.

One assay has as its target hPAD4 (Homo sapiens, UniProt Q9UM07). The assay is described as follows: hPAD4 RFMS (RapidFire mass spectrometry) PAD4 inhibition assay.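 As to hPAD4 RFMS pIC50: grade E means pIC50 at most 4 and F means pIC50 4.0 to 5.0.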 It counts as biochemical. To be noted: hPAD4 enzyme, RFMS readout. Here is the method:
(§1) Compounds of the present invention were assayed as inhibitors of PAD4 using the assay protocol described below.
(§2) Compound stock solutions were stored at RT. […] Final assay conditions were as follows:
(§3) Total incubation time: 65 mins at 37° C.
(§4) Stop solution: 40 μl 5% TCA in ACN
(§5) The compound numbers correspond to the compound numbers in Table 1. […] The term pIC50=−log(IC50). […] “NA” stands for “not assayed.”

The next assay deals with mPAD4 (Mus musculus, UniProt Q9Z183). The assay can be described thus: mPAD4 RFMS PAD4 inhibition assay.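 As to mPAD4 RFMS pIC50: grade E means pIC50 at most 4 and F means pIC50 4.0 to 5.0.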 The format is biochemical. As to conditions: mPAD4, RFMS readout. How it is done:
as §1, §2, §3, §4, §5

Where [1] appears, read: pIC50=−log(IC50), read-out: hPAD4 RFMS pIC50 (converted).
Setting [2] is: pIC50=−log(IC50), read-out: mPAD4 RFMS pIC50 (converted).

Chain of mPAD4 (Q9Z183 whole entry): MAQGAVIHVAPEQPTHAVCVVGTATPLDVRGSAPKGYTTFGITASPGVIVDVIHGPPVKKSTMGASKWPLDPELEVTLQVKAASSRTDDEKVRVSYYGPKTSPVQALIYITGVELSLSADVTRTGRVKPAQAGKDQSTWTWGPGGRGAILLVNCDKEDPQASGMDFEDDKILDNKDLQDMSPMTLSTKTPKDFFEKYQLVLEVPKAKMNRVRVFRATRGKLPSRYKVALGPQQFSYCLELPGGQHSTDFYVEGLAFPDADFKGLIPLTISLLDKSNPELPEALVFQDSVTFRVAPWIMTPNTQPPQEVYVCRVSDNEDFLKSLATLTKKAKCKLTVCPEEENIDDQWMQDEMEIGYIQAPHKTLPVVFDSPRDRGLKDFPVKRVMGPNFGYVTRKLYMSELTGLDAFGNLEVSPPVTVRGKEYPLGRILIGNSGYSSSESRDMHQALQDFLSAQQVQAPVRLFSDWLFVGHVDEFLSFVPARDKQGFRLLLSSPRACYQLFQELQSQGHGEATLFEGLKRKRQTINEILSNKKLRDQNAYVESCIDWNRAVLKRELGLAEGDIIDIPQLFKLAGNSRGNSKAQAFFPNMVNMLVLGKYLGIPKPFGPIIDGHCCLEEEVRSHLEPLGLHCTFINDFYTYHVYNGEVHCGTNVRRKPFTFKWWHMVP
Chain of hPAD4 (Q9UM07 whole entry): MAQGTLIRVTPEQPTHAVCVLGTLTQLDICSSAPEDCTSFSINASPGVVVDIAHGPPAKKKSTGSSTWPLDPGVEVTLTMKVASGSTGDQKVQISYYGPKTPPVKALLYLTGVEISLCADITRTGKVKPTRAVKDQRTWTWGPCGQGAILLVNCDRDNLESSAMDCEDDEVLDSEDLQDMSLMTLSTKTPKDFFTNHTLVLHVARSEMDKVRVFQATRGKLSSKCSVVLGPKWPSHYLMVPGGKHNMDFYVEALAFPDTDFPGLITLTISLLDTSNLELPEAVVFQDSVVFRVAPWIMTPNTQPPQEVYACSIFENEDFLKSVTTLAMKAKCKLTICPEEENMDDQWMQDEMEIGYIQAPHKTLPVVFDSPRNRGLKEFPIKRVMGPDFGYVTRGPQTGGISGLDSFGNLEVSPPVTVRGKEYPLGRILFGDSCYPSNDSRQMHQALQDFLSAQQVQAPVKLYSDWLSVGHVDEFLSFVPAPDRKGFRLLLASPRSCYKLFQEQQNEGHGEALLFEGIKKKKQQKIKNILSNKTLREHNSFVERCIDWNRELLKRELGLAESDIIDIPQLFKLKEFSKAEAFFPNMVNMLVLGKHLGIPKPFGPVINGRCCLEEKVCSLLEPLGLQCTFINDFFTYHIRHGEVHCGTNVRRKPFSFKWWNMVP

With `COc1ccc2cc(-c3nc4cc(C(=O)N5C[C@H]6CC[C@@H]5[C@@H]6N)cc(OC)c4n3C)n(CC3CC3)c2n1` [Compound I-188], the IC50 on hPAD4 (setting [1]), at hPAD4 (read-out: hPAD4 RFMS IC50), at mPAD4 (setting [2]) and on mPAD4 (read-out: mPAD4 RFMS IC50) was under 1000 nM in each case.

Turning to `CCn1c(-c2nc3cc(C(=O)N4C[C@H]5CC[C@@H]4[C@@H]5N)cc(OC)c3n2C)cc2ccc(C(F)F)nc21` [Compound I-189, (1R,4R,7R)-2-{2-[6-(Difluoromethyl)-1-ethyl-1H-pyrrolo[2,3-b]pyridin-2-yl]-7-methoxy-1-methyl-1H-1,3-benzodiazole-5-carbonyl}-2-azabicyclo[2.2.1]heptan-7-amine], the IC50 on hPAD4 (setting [1]), at hPAD4 (read-out: hPAD4 RFMS IC50), on mPAD4 (setting [2]) and on mPAD4 (read-out: mPAD4 RFMS IC50) was under 1000 nM in each case.

Take `COCCn1c(-c2nc3cc(C(=O)N4C[C@@H](N)CC[C@H]4C)cc(OC)c3n2C)cc2cccnc21` [Compound I-190]: the IC50 was 1000 to 10000 nM on hPAD4 (setting [1]), 1000 to 5000 nM at hPAD4 (read-out: hPAD4 RFMS IC50), 1000 to 10000 nM on mPAD4 (setting [2]) and 1000 to 5000 nM on mPAD4 (read-out: mPAD4 RFMS IC50).

Turning to `Cn1c(-c2cc3cccnc3n2CC2CC2)nc2cc(C(=O)N3C[C@H]4CC[C@@H]3[C@@H]4N)cc(F)c21` [Compound I-191], the IC50 at hPAD4 (setting [1]) was under 1000 nM; at hPAD4 (read-out: hPAD4 RFMS IC50) it was under 1000 nM; at mPAD4 (setting [2]) it was 1000 to 10000 nM; at mPAD4 (read-out: mPAD4 RFMS IC50), 1000 to 5000 nM.

As to `COCCn1c(-c2nc3cc(C(=O)N4C[C@H]5CC[C@@H]4[C@@H]5N)ccc3n2C)cc2ccc(OC)nc21` [Compound I-192], the IC50 at hPAD4 (setting [1]) is under 1000 nM; on hPAD4 (read-out: hPAD4 RFMS IC50), under 1000 nM; at mPAD4 (setting [2]), 1000 to 10000 nM; at mPAD4 (read-out: mPAD4 RFMS IC50) it was 5000 to 10000 nM.

`COCCn1c(-c2nc3cc(C(=O)N4CCC[C@@H](N)C4)ccc3n2C)cc2ccc(OC)nc21` [Compound I-193]: the IC50 on hPAD4 (setting [1]) was 1000 to 10000 nM; at hPAD4 (read-out: hPAD4 RFMS IC50), 1000 to 5000 nM; on mPAD4 (setting [2]) it was 1000 to 10000 nM; on mPAD4 (read-out: mPAD4 RFMS IC50) it was 1000 to 5000 nM.

As to `Cn1c(-c2cc3cccnc3n2CC2CC2)nc2cc(C(=O)N3C[C@H]4CC[C@@H]3[C@@H]4N)c(F)cc21` [Compound I-194], the IC50 is 1000 to 10000 nM at hPAD4 (setting [1]), 1000 to 5000 nM at hPAD4 (read-out: hPAD4 RFMS IC50), 1000 to 10000 nM on mPAD4 (setting [2]) and 5000 to 10000 nM on mPAD4 (read-out: mPAD4 RFMS IC50).

As to `COCCn1c(-c2nc3cc(C(=O)N4C[C@H](N)CC[C@@H]4C)cc(OC)c3n2C)cc2cccnc21` [Compound I-195], the IC50 was 1000 to 10000 nM on hPAD4 (setting [1]), 5000 to 10000 nM on hPAD4 (read-out: hPAD4 RFMS IC50), 1000 to 10000 nM at mPAD4 (setting [2]) and 1000 to 5000 nM on mPAD4 (read-out: mPAD4 RFMS IC50).

For `COc1cc(C(=O)N2C[C@H]3CC[C@@H]2[C@@H]3N)cc2nc(-c3cc4ccc(C(F)(F)F)nc4n3CC3CC3)n(C)c12` [Compound I-196], the IC50 on hPAD4 (setting [1]), at hPAD4 (read-out: hPAD4 RFMS IC50), on mPAD4 (setting [2]) and on mPAD4 (read-out: mPAD4 RFMS IC50) was under 1000 nM each time.

For the compound `COc1cc(C(=O)N2CCC[C@@H](N)C2)cc2nc(-c3cc4ccc(C(F)(F)F)nc4n3CC3CC3)n(C)c12` [Compound I-197], the IC50 on hPAD4 (setting [1]), at hPAD4 (read-out: hPAD4 RFMS IC50), on mPAD4 (setting [2]) and on mPAD4 (read-out: mPAD4 RFMS IC50) was under 1000 nM in each case.

As for `COc1cc(C(=O)N2C[C@H]3CC[C@@H]2[C@@H]3N)cc2nc(-c3cc4ccc(C)nc4n3CC3CC3)n(C)c12` [Compound I-198], the IC50 on hPAD4 (setting [1]), on hPAD4 (read-out: hPAD4 RFMS IC50), on mPAD4 (setting [2]) and on mPAD4 (read-out: mPAD4 RFMS IC50) was under 1000 nM in each case.

With `COc1cc(C(=O)N2CCC[C@@H](N)C2)cc2nc(-c3cc4ccc(C)nc4n3CC3CC3)n(C)c12` [Compound I-199], the IC50 on hPAD4 (setting [1]), on hPAD4 (read-out: hPAD4 RFMS IC50), on mPAD4 (setting [2]) and at mPAD4 (read-out: mPAD4 RFMS IC50) was under 1000 nM each time.

As to `CCn1c(-c2nc3cc(C(=O)N4C[C@H]5CC[C@@H]4[C@@H]5N)cc(OC)c3n2C)cc2ccc(OC(F)F)nc21` [Compound I-200, (1R,4R,7R)-2-{2-[6-(difluoromethoxy)-1-ethyl-1H-pyrrolo[2,3-b]pyridin-2-yl]-7-methoxy-1-methyl-1H-1,3-benzodiazole-5-carbonyl}-2-azabicyclo[2.2.1]heptan-7-amine], the IC50 on hPAD4 (setting [1]), at hPAD4 (read-out: hPAD4 RFMS IC50), on mPAD4 (setting [2]) and at mPAD4 (read-out: mPAD4 RFMS IC50) was under 1000 nM in each case.

For `CCn1c(-c2nc3cc(C(=O)N4CCC[C@@H](N)C4)cc(OC)c3n2C)cc2ccc(OC(F)F)nc21` [Compound I-201], the IC50 at hPAD4 (setting [1]), at hPAD4 (read-out: hPAD4 RFMS IC50), at mPAD4 (setting [2]) and at mPAD4 (read-out: mPAD4 RFMS IC50) was under 1000 nM in each case.

Turning to `COc1cc(C(=O)N2C[C@H]3CC[C@@H]2[C@@H]3N)cc2nc(-c3cc4cnc(C)nc4n3CC3CC3)n(C)c12` [Compound I-202, (1R,4R,7R)-2-{2-[7-(Cyclopropylmethyl)-2-methyl-7H-pyrrolo[2,3-d]pyrimidin-6-yl]-7-methoxy-1-methyl-1H-1,3-benzodiazole-5-carbonyl}-2-azabicyclo[2.2.1]heptan-7-amine], the IC50 at hPAD4 (setting [1]) is under 1000 nM; on hPAD4 (read-out: hPAD4 RFMS IC50), under 1000 nM; on mPAD4 (setting [2]), 1000 to 10000 nM; at mPAD4 (read-out: mPAD4 RFMS IC50), 1000 to 5000 nM.
